Source: ChEMBL document CHEMBL4811292, “Discovery of novel β-turn mimetic-based peptides as novel quorum sensing inhibitors of gram-negative bacteria” (Bioorg Med Chem Lett, 2021)
≈ marks a conversion by molar mass, not a printed value. Calls of active or inactive are those of the source. The calls are words filed in the database; no cut-off is given here.

Experiments:
[1] = tested on: Pseudomonas aeruginosa; test: Antibiofilm activity against Pseudomonas aeruginosa PA14 assessed as inhibition of biofilm formation at 15 to 50 uM measured after 48 hrs relative to control; type: functional; conditions: dose 15-50 µM
[2] = tested on: Pseudomonas aeruginosa; test: Inhibition of quorum sensing system lasB in Pseudomonas aeruginosa transfected with lasB-gfp assessed as reduction of GFP production at 10 uM
[3] = tested on: Pseudomonas aeruginosa; test: Potency index, ratio of 4NPO IC50 to test compound IC50 for inhibition of quorum sensing system lasB in Pseudomonas aeruginosa transfected with lasB-gfp
[4] = tested on: Staphylococcus epidermidis; test: Inhibition of quorum sensing system in Staphylococcus epidermidis
[5] = tested on: Pseudomonas aeruginosa; test: Antibacterial activity against Pseudomonas aeruginosa assessed as inhibition of cell growth; type: functional
[6] = Inhibition of quorum sensing system in Chromobacterium violaceum ATCC 31532 assessed as reduction in violacein production at 100 uM
[7] = Inhibition of quorum sensing system lasB in Pseudomonas aeruginosa transfected with lasB-gfp assessed as reduction of GFP production
[8] = Inhibition of quorum sensing system in Chromobacterium violaceum ATCC 31532 assessed as reduction in violacein production at <100 uM; conditions: dose microM <100
[9] = tested on: Pseudomonas aeruginosa; test: Inhibition of quorum sensing system lasB in Pseudomonas aeruginosa transfected with lasB-gfp assessed as reduction of GFP production at 5 uM
[10] = tested on: Pseudomonas aeruginosa; test: Antibiofilm activity against Pseudomonas aeruginosa PA14 assessed as inhibition of biofilm formation at 15 to 50 uM measured after 48 hrs; type: functional, organism-based; conditions: dose 15-50 µM
[11] = tested on: Pseudomonas aeruginosa; test: Antibiofilm activity against Pseudomonas aeruginosa PA14 assessed as inhibition of biofilm formation at 50 uM measured after 48 hrs relative to control; type: functional
[12] = tested on: Pseudomonas aeruginosa; test: Inhibition of quorum sensing system lasB in Pseudomonas aeruginosa transfected with lasB-gfp assessed as reduction of GFP production at 10 to 15 uM; conditions: dose 10-15 µM

Row | inhibition [2] | Ratio IC50 [3] | inhibition [4] | MIC [5] [µM] | inhibition [6] [%] | IC50 ([7]; read-out: IC50) [µM] | inhibition [8] | IC50 [7] | inhibition [9] | inhibition [12] | Compound | inhibition (INH) [1] [%] | inhibition [10] | inhibition at 50 µM [11] [%]
1 | Active | 2 | inactive | > 100 | 49 | 7 | inactive | – | – | – | C=CCNC(=O)N1[C@H]2CN(Cc3ccccc3)C(=O)[C@H](C(C)CC)N2C(=O)CN1c1ccc(C)cc1 (some centres not stated) | 20 | – | –
2 | – | – | inactive | 100 (≈ 57.4 µg/mL) | 12 | – | inactive | Not Active | – | – | CCCCN1C[C@H]2N(C(=O)CN(c3ccc(C)cc3)N2C(=O)NCc2ccccc2)[C@@H](Cc2ccc(Cl)cc2)C1=O | – | – | –
3 | – | – | inactive | > 150 | 21 | – | inactive | Not Active | – | – | CCCCN1C[C@H]2N(C(=O)CN(c3ccc(C)cc3)N2C(=O)NCc2ccccc2)[C@@H](C(C)C)C1=O | – | – | –
4 | – | 2 | inactive | > 100 | 62 | 4 | inactive | – | Active | – | C=CCNC(=O)N1[C@H]2CN(Cc3ccccc3)C(=O)[C@H](Cc3ccccc3)N2C(=O)CN1c1ccc(C)cc1 | 80 | – | –
5 | – | – | – | – | 66 | 27 | – | – | – | – | O=[N+]([O-])c1cc[n+]([O-])cc1 | – | Active | –
6 | – | 2 | inactive | > 150 | 52 | 12 | inactive | – | – | Active | Cc1ccc(N2CC(=O)N3[C@@H](CC(C)C)C(=O)N(Cc4ccco4)C[C@@H]3N2C(=O)NCc2ccccc2)cc1 | – | – | 80
